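How tested: cells in 96-well plates exposed to compound for 48 hours at five concentrations. Here, GI50 denotes the concentration required for 50% inhibition of growth. TGI denotes the concentration required for complete inhibition of growth.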
Key:
Test in all cases: DTP human tumour cell line panel, 48 h
OVCAR-3 ovarian = test system: OVCAR-3 ovarian
SF-295 CNS = test system: SF-295 CNS
TK-10 renal = test system: TK-10 renal
SK-MEL-28 melanoma = test system: SK-MEL-28 melanoma
SNB-75 CNS = test system: SNB-75 CNS
SW-620 colon = test system: SW-620 colon
OVCAR-5 ovarian = test system: OVCAR-5 ovarian
RPMI-8226 leukemia = test system: RPMI-8226 leukemia
NCI-H226 lung = test system: NCI-H226 lung
BT-549 breast = test system: BT-549 breast

`Cc1cc(NCCCCCCNc2cc(C)nc3cc(N(C)C)ccc23)c2ccc(N(C)C)cc2n1` gave a TGI (OVCAR-3 ovarian) of over 100 µM, a TGI (SF-295 CNS) of over 100 µM and a TGI (TK-10 renal) of over 100 µM. The TGI (SK-MEL-28 melanoma) was over 100 µM, the TGI (SNB-75 CNS) was over 100 µM and the TGI (SW-620 colon) was over 100 µM. For the same compound, the TGI (OVCAR-5 ovarian) was over 100 µM.
`Cc1cc2c(C)nn(Cc3ccccc3)c2c(C(N)=O)c1C` showed a TGI (OVCAR-3 ovarian) of over 100 µM, a TGI (SF-295 CNS) of over 100 µM and a TGI (TK-10 renal) of over 100 µM. For the same compound, the TGI (SK-MEL-28 melanoma) was over 100 µM, the TGI (SNB-75 CNS) was 58.8 µM and the TGI (SW-620 colon) was over 100 µM. The TGI (OVCAR-5 ovarian) was over 100 µM and the TGI (RPMI-8226 leukemia) was over 100 µM.
In the case of `CCN(CC)CCOc1ccc(CCc2cc(OC)c(OC)c(OC)c2)cc1`, the TGI (OVCAR-3 ovarian) is reported as over 100 µM, the TGI (SF-295 CNS) is reported as 50.5 µM and the TGI (TK-10 renal) is reported as 88.9 µM. It also gave a TGI (SK-MEL-28 melanoma) of over 100 µM, a TGI (SNB-75 CNS) of 94.5 µM and a TGI (SW-620 colon) of 46.8 µM. It also gave a TGI (OVCAR-5 ovarian) of 65.3 µM, a TGI (RPMI-8226 leukemia) of 51.5 µM and a TGI (NCI-H226 lung) of over 100 µM.
Work on `O=C1NC2(CCCCCC2)C2CCCCCCC12O` (stereo not given) yielded a TGI (OVCAR-3 ovarian) of over 100 µM, a TGI (SF-295 CNS) of over 100 µM and a TGI (TK-10 renal) of over 100 µM. For the same compound, the TGI (SK-MEL-28 melanoma) was over 100 µM, the TGI (SNB-75 CNS) was over 100 µM and the TGI (SW-620 colon) was over 100 µM. For the same compound, the TGI (OVCAR-5 ovarian) was over 100 µM.
`Clc1ccc(N=Nc2nc3ccccc3nc2N=Nc2ccc(Cl)cc2Cl)c(Cl)c1` gave a TGI (OVCAR-3 ovarian) of over 100 µM, a TGI (SF-295 CNS) of over 100 µM and a TGI (TK-10 renal) of over 100 µM. For the same compound, the TGI (SK-MEL-28 melanoma) was over 100 µM, the TGI (SNB-75 CNS) was 93.4 µM and the TGI (SW-620 colon) was over 100 µM. For the same compound, the TGI (RPMI-8226 leukemia) was over 100 µM and the TGI (NCI-H226 lung) was over 100 µM.
`O=c1oc(Cl)c(Cl)c2ccccc12` was tested, and the GI50 (OVCAR-3 ovarian) was 11.7 µM, the TGI (OVCAR-3 ovarian) was 27.8 µM and the GI50 (SF-295 CNS) was 39.4 µM. The TGI (SF-295 CNS) was over 100 µM, the GI50 (TK-10 renal) was 82.5 µM and the TGI (TK-10 renal) was over 100 µM. For the same compound, the GI50 (SK-MEL-28 melanoma) was 46.5 µM, the TGI (SK-MEL-28 melanoma) was over 100 µM and the GI50 (SNB-75 CNS) was 24.7 µM. For the same compound, the TGI (SNB-75 CNS) was 59.3 µM, the GI50 (BT-549 breast) was 20.8 µM and the TGI (BT-549 breast) was 41.2 µM. The GI50 (SW-620 colon) was 19.7 µM, the TGI (SW-620 colon) was 56.3 µM and the GI50 (OVCAR-5 ovarian) was 18.7 µM. The TGI (OVCAR-5 ovarian) was 57.1 µM, the GI50 (NCI-H226 lung) was 22.2 µM and the TGI (NCI-H226 lung) was 42.3 µM.
`COc1cc([C@@H]2c3cc4c(cc3[C@@H](OC(=O)c3ccc(N)cc3)C3COC(=O)[C@@H]32)OCO4)cc(OC)c1O` (stereo not given in full) was tested, and the TGI (OVCAR-3 ovarian) was 35 µM, the TGI (SF-295 CNS) was over 95 µM and the TGI (TK-10 renal) was 94.2 µM. It also gave a TGI (SK-MEL-28 melanoma) of over 95 µM, a TGI (SNB-75 CNS) of 36.4 µM and a TGI (SW-620 colon) of over 95 µM. For the same compound, the TGI (OVCAR-5 ovarian) was over 95 µM, the TGI (RPMI-8226 leukemia) was 58 µM and the TGI (NCI-H226 lung) was 33.6 µM.
`N.N.N.N.N.[Cl-].[Co+3].c1ccc(-c2nn[n-]n2)cc1` was tested, and the GI50 (OVCAR-3 ovarian) was over 100 µM, the TGI (OVCAR-3 ovarian) was over 100 µM and the GI50 (SF-295 CNS) was over 100 µM. The TGI (SF-295 CNS) was over 100 µM, the GI50 (TK-10 renal) was over 100 µM and the TGI (TK-10 renal) was over 100 µM. For the same compound, the GI50 (SK-MEL-28 melanoma) was over 100 µM, the TGI (SK-MEL-28 melanoma) was over 100 µM and the GI50 (SNB-75 CNS) was over 100 µM. For the same compound, the TGI (SNB-75 CNS) was over 100 µM, the GI50 (SW-620 colon) was over 100 µM and the TGI (SW-620 colon) was over 100 µM. For the same compound, the GI50 (OVCAR-5 ovarian) was over 100 µM, the TGI (OVCAR-5 ovarian) was over 100 µM and the GI50 (RPMI-8226 leukemia) was over 100000 nM. For the same compound, the TGI (RPMI-8226 leukemia) was over 100 µM, the GI50 (NCI-H226 lung) was over 100 µM and the TGI (NCI-H226 lung) was over 100 µM.
`CCC(C)[C@H]1O[C@]2(C=C[C@@H]1C)C[C@@H]1C[C@@H](C/C=C(\C)[C@@H](OC3C[C@H](OC)C(O[C@H]4C[C@H](OC)[C@@H](O)[C@H](C)O4)[C@H](C)O3)[C@@H](C)/C=C/C=C3\CO[C@@H]4[C@H](O)C(C)=C[C@@H](C(=O)O1)[C@]34O)O2` (stereo not given in full) showed a GI50 (OVCAR-3 ovarian) of 0.904 µM, a TGI (OVCAR-3 ovarian) of 1.66 µM and a GI50 (TK-10 renal) of 1.07 µM. The TGI (TK-10 renal) was 2.74 µM, the GI50 (SK-MEL-28 melanoma) was 2.08 µM and the TGI (SK-MEL-28 melanoma) was 7.23 µM. For the same compound, the GI50 (SNB-75 CNS) was 2.74 µM, the TGI (SNB-75 CNS) was 9.09 µM and the GI50 (BT-549 breast) was 0.864 µM. The TGI (BT-549 breast) was 1.66 µM, the GI50 (OVCAR-5 ovarian) was 2.06 µM and the TGI (OVCAR-5 ovarian) was 7.86 µM. The GI50 (RPMI-8226 leukemia) was 1580 nM, the TGI (RPMI-8226 leukemia) was 50 µM and the GI50 (NCI-H226 lung) was 1.08 µM. For the same compound, the TGI (NCI-H226 lung) was 3.27 µM.

From PubChem BioAssay (NCI)
